Consider 86 compounds from PubChem BioAssay AID2305 (GlaxoSmithKline (GSK), 2010).

In this assay the test system is P. falciparum 3D7 growth, pLDH absorbance. The assay is described as follows: P. falciparum 3D7 growth inhibition, dose response, strain 3D7 (AID 2305).

pIC50: −log10 of the molar value.

For `COc1ccc(CCNC(=O)c2ccccc2O)cc1-c1ccc(C(C)(C)C)cc1`, the pIC50 was 6.25.

`CC(=O)c1ccc(NC(=O)Nc2ccc3nccc(N4CCN(C)CC4)c3c2)cc1` showed a pIC50 of 6.37.

`COc1ccc(/C=C/C(=O)NCCCCCN2CCC(c3c[nH]c4ccccc34)CC2)cc1O` showed a pIC50 of 6.02.

Regarding `CN1CCN(c2ccnc3ccc(NC(=O)Nc4ccc(-c5ccncc5)c5ccccc45)cc23)CC1`, the pIC50 was 6.51. Compared with the last compound, the pIC50 is 0.49 log units higher.

The compound `CN(C)c1ccc(C=CC(=O)NC(=O)c2ccccc2O)cc1` gave a pIC50 of 6.64.

In the case of `Cc1ccc2c(NN=Cc3cccc([N+](=O)[O-])c3)cc(C)nc2c1`, the pIC50 was 6.57.

As to `O=C(/C=C/c1ccc(Cl)c(Cl)c1)NCCCCCN1CCC(NC(=O)Nc2ccc(Cl)c(C(F)(F)F)c2)CC1`, the pIC50 was 6.19.

`Cc1cccc2c3c([nH]c12)C1(CCN(Cc2ccccc2)CC1)NC(C(=O)NCc1ccccc1)C3` (stereo unspecified) gave a pIC50 of 5.86.

As for `O=C(Nc1ccc(-c2ccc(-c3nc4ccc(C(F)(F)F)cc4[nH]3)s2)cc1)c1ccoc1`, the pIC50 was 6.07.

For the compound `Cc1cccc2[nH]c(-c3ccc(-c4ccc(NC(=O)C5CCN(C)CC5)cc4)cc3)nc12`, the pIC50 was 6.12. The pIC50 values of the last two compounds are within 0.2 log units of each other.

As for `O=C(c1ccc(-c2cccc(-c3nc4ccc(C(F)(F)F)cc4[nH]3)c2)cc1)N1CCCCC1CN1CCC(O)C1` (stereo unspecified), the pIC50 was 6.19.

In the case of `C=CCOC(=O)N1CCC(CNCc2cccc(-c3ccc(-c4nc5ccc(C(F)(F)F)cc5[nH]4)cc3)c2)C1` (stereo unspecified), the pIC50 is 6.82.

In the case of `N#Cc1ccc2[nH]cc(-c3cn4cc(SC5CCCC5)ccc4n3)c2c1`, the pIC50 is 6.03.

`c1cc(CNC2Cc3ccccc3C2)cc(-c2cnc(N3CCNCC3)nc2)c1` had a pIC50 of 6.03.

`CC[C@H]1CN2CC[C@H]1C[C@H]2[C@H](O)c1cc(N2CCCC(CO)C2)nc2ccc(OC)cc12` (stereo partly specified) showed a pIC50 of 7.10. This pIC50 is 1.07 log units higher than that of the compound before.

`CCOC(=O)c1cn(CC)c2cc(N3CCCCCC3)c(F)cc2c1=O` gave a pIC50 of 6.39.

`CCOc1cc(Cc2cnc(N)nc2N)cc(OCC)c1OCC` had a pIC50 of 6.55.

As to `N#CCCN1CCN(Cc2cccc(-c3ccc(-c4nc5ccccc5[nH]4)s3)c2)CC1`, the negative-log IC50 (pIC50) is 6.12.

On to `Cc1cc(NN=Cc2ccc(F)cc2)c2ccc(F)cc2n1`, for which the pIC50 was 6.02.

In turn, `CCN(CC)CCCN(CCCN(CC)CC)c1cc(C)nc(Nc2ccc(Cl)cc2)n1` had a negative logarithm of the IC50 (pIC50) of 6.68. Against the preceding compound, the pIC50 is 0.66 log units higher.

Turning to `Cc1cc(S(=O)(=O)N2CCCCC(c3ccc(C(F)(F)F)cc3)=N2)c(Cl)cc1Cl`, the pIC50 was 6.30.

Consider `O=C(NCCCc1ccccc1)c1csc(C2CCCN(C(=O)c3ccc(O)c(-c4cccc5ccccc45)c3)C2)n1` (stereo unspecified), for which the pIC50 is 6.01.

Compound `Cc1ccc2c(=O)cc(CCc3cccc(F)c3F)n(CC(=O)N(Cc3ccc(-c4ccc(C(F)(F)F)cc4)cc3)C3CCN(C(C)C)CC3)c2n1` gave a pIC50 of 6.11.

`COCCOc1ccc(Nc2nccc(-c3c(-c4cccc(NC(=O)c5c(F)cccc5F)c4)nn4ccccc34)n2)cc1Cl` gave a pIC50 of 6.44.

In turn, `COc1cccc(NC(=O)COc2ccc(C(=O)Nc3nc4ccccc4[nH]3)cc2)c1` gave a pIC50 of 6.01.

For `N=C(N)c1ccc(NC(=O)Cc2nc3ccc(C(=N)N)cc3[nH]2)cc1`, the pIC50 is 5.86.

Compound `CC(=NN=C(N)N)c1ccc2ccc3ccccc3c2c1` gave a pIC50 of 6.05.

The compound `CN(C)c1ccc(CN2CCC(NC(=O)c3ccc(-c4ccc(N(C)C)cc4)s3)CC2)cc1` showed a pIC50 of 5.97.

The compound `COc1ccc(S(=O)(=O)Nc2ccc(C(=O)NCc3ccc(C(F)(F)F)cc3)cc2)cc1N1CCN(CC2CC2)CC1` had a pIC50 of 5.95.

`CN(c1ccc(NC(=O)Nc2cc(C(F)(F)F)ccc2F)cc1)c1ccnc(NCCN2CCCC2)n1`: the pIC50 was 5.94.

As to `CCC(C)(C)c1ccc(S(=O)(=O)Nc2ccc(Cl)c(OCCN3CCCCC3)c2)cc1`, the pIC50 is 5.95. The pIC50 values of the last two compounds are within 0.2 log units of each other.

Compound `CC(C)n1ncc2c(C(=O)Nc3ccc(C#N)c(Cl)c3)cc(C3CC3)nc21` had a pIC50 of 6.02. This pIC50 and that of the compound before are within 0.2 log units of each other.

With `CN(Cc1cccc(O)c1)C1CCCN(c2cc(NC(=O)c3ccc(F)cc3)ccn2)C1` (stereo unspecified), the pIC50 was 5.97.

In turn, `Cc1cc(N[C@@H](Cc2ccccc2)C(=O)Nc2ccccc2)nc(NCCN2CCCC2)n1` gave a pIC50 of 5.74.

As for `CC1CCCCN1CCCNC(=O)c1cccc(-c2cc3cc(Cl)c(Cl)cc3[nH]2)c1` (stereo unspecified), the pIC50 is 6.06.

Turning to `O=C(N[C@H]1CCN(Cc2ccc(OCCCN3CCCCC3)cc2)C1)c1ccc(Cl)c(Cl)c1`, the pIC50 was 6.11.

Turning to `O=C(NCCN1CCCCC1)c1ccc(CNC(=O)c2ccc(O)c(-c3cccc(C(F)(F)F)c3)c2)cc1`, the pIC50 was 6.05.

For `O=C(Nc1ccc(C(F)(F)F)cc1)c1ccc(S(=O)(=O)NC2CCN(CC3CCCCC3)CC2)cc1`, the pIC50 is 6.14.

The compound `Cc1cc(N[C@@H](CC(C)C)C(=O)NCc2cccs2)nc(Nc2ccccc2)n1` had a negative logarithm of the IC50 (pIC50) of 5.95.

For the compound `CCCCNCc1ccc(-c2nc(CN(CCCn3ccnc3)C(=O)C3COc4ccccc4O3)cs2)cc1` (stereo unspecified), the pIC50 is 6.05. The pIC50 values of the last two compounds are within 0.2 log units of each other.

In turn, `O=C(Nc1cccc(CN2CCCN(Cc3ccc(O)cc3)CC2)c1)c1cc2ccccc2o1` had a pIC50 of 5.92. This pIC50 and that of the compound before are within 0.2 log units of each other.

Consider `COc1ccc2nccc([C@@H](O)CN3CCC(NCc4nc5ccccc5[nH]4)CC3)c2c1`, for which the pIC50 was 5.97.

Take `Cc1cc(NCCc2ccc(O)cc2)nc(NCC(c2ccccc2)c2ccccc2)n1`: the pIC50 is 6.49.

Compound `COc1ccc(C(=O)Nc2ccc3oc(-c4ccc(C(F)(F)F)cc4)cc3c2)cc1CCCN(C)C` had a pIC50 of 6.15.

Regarding `NC1=NC2(CCCC2)C(c2ccc(Cl)c(Cl)c2)C(N)=N1` (stereo unspecified), the pIC50 is 6.00. This pIC50 and that of the compound before are within 0.2 log units of each other.

`Cc1c(C)n(C2CCCCC2)c2ncnc(OC3CCN(CC(=O)N4CCCC4)CC3)c12` gave a pIC50 of 5.84.

As to `N#Cc1ccc(/C=C/C(=O)NCCCCCN2CCCN(C(=O)Nc3ccc(Cl)c(C(F)(F)F)c3)CC2)cc1`, the pIC50 was 6.36.

Regarding `N#CN1CC[C@@H](OC(=O)N[C@@H]2C[C@H]2c2ccccc2)C1`, the pIC50 was 5.87. This pIC50 lies 0.49 log units lower than the previous one.

`Nc1ncnc2c1ncn2C(CO)Cc1ccc(O)cc1` (stereo unspecified) showed a pIC50 of 5.99.

For the compound `O=C(/C=C/c1ccc(Cl)c(Cl)c1)NCCCCCN1CCC(NC(=O)Nc2ccccc2F)CC1`, the pIC50 is 6.08.

As to `CC(=O)Nc1ccc(C(=O)Nc2cccc(-c3cccc(-c4nc5ccc(C(F)(F)F)cc5[nH]4)c3)c2)cn1`, the pIC50 was 7.15.

For `COc1ccc(CN2CCN(Cc3cc(Cl)ccc3O)CC2CCO)c(C)c1C` (stereo unspecified), the pIC50 is 5.83.

`CC1CN(c2cc(=O)n(Cc3cccc(NC(=O)Nc4ccc(-c5ccccc5)cc4)c3)cn2)CC(C)N1` (stereo unspecified): the pIC50 is 6.40.

For `Oc1cc(Nc2ccnc3ccc(I)cc23)c(F)cc1Cl`, the pIC50 is 5.91. Compared with the last compound, the pIC50 is 0.49 log units lower.

For the compound `O=C(N[C@@H](CC1CCCCC1)C(=O)NCCc1ccc(Cl)c(Cl)c1)c1ccc(O)c(-c2ccc(Cl)c(Cl)c2)c1`, the pIC50 was 6.80.

As to `COc1cc2nc(NCCc3ccccc3)nc(NCc3cc(C)no3)c2cc1OC`, the pIC50 is 6.62.

`CN(C)CCN(C)Cc1ccc(-c2ccc3c(Nc4ccc(Oc5ccccn5)cc4)ccnc3c2)o1`: the pIC50 is 6.38. This pIC50 is 0.24 log units lower than that of the compound before.

For the compound `Fc1ccc2c(NN=CC=Cc3ccccc3)ccnc2c1`, the pIC50 is 6.11.

`CC[C@H]1CN2CC[C@H]1C[C@H]2[C@H](O)c1cc(-c2cccc(F)c2)nc2ccc(OC)cc12` had a pIC50 of 7.22. This pIC50 lies 1.11 log units higher than the previous one.

Compound `COc1cccc(CNC(=O)NC2CCN(c3ccnc(Nc4ccc(F)cc4)n3)C2)c1` (stereo unspecified) showed a pIC50 of 6.09.

The compound `CCOc1cc(Br)c(C(C)NC(=O)c2ccccc2)cc1OCC` (stereo unspecified) gave a pIC50 of 6.07. The pIC50 values of the last two compounds are within 0.2 log units of each other.

On to `COc1cc(NC(=O)c2sc(-c3ccc(Cl)cc3)cc2NC(=O)N2CCCC2)ccc1OCCN1CCCC1`, for which the pIC50 was 6.24. This pIC50 and that of the compound before are within 0.2 log units of each other.

Consider `COc1cc(Cc2cnc(N)nc2N)cc(OC)c1OC`, for which the pIC50 is 6.12. The pIC50 values of the last two compounds are within 0.2 log units of each other.

In turn, `N#Cc1ccc2c(c1)CCN(CCC1CCC(NC(=O)Nc3ccnc4ccccc34)CC1)C2` (stereo unspecified) gave a pIC50 of 6.42.

`Cc1ccc2sc(N3CCN(C(=O)c4ccc([N+](=O)[O-])o4)CC3)nc2c1C` had a pIC50 of 6.03. This pIC50 lies 0.39 log units lower than the previous one.

`O=S(=O)(NC1CCCCN(Cc2ccccc2O)C1)c1ccc(C(F)(F)F)cc1` (stereo unspecified) showed a pIC50 of 5.89.

For the compound `NCc1cccc(-c2ccc3ccnc(N)c3c2)c1`, the pIC50 is 6.77.

The compound `COc1ccc(CNC(=O)NC2CCN(c3ccnc(Nc4ccc(F)cc4)n3)C2)cc1` (stereo unspecified) had a negative logarithm of the IC50 (pIC50) of 6.08.

In turn, `CCOc1cc(C)ccc1N(C1CCN(CCCCNC(=O)c2ccc(-c3ccc(C(F)(F)F)cc3)cc2)CC1)S(=O)(=O)c1ccccc1` showed a pIC50 of 5.99.

As for `Cc1nnsc1C(=O)Nc1cccc(-c2ccc(-c3nc4ccc(C(F)(F)F)cc4[nH]3)cc2)c1`, the pIC50 was 6.51.

In turn, `CC(C)[C@H](NC(=O)c1ccc(O)c(-c2ccc(Cl)c(Cl)c2)c1)C(=O)NC1CCCCCC1` had a pIC50 of 6.66.

In turn, `CSc1ccc(CN2CCC(NC(=O)c3ccc(-c4cccc(C(F)(F)F)c4)s3)CC2)cc1` showed a pIC50 of 5.91.

Compound `Cc1cc(NCCC(=O)NCCOc2ccccc2)nc(NCCc2ccccc2)n1` showed a pIC50 of 5.91.

Take `CN1CCC(C(=O)Nc2ccc(-c3cccc(-c4nc5ccc(F)cc5[nH]4)c3)cc2)CC1`: the pIC50 was 6.10.

In turn, `CS(=O)(=O)CCNCc1cccc(-c2ccc3c(Nc4ccc(Oc5cccnc5)cc4)ccnc3c2)c1` gave a pIC50 of 6.85.

For the compound `Cc1cc(N2CCN(C(=O)OC(C)(C)C)CC2)ccc1N`, the pIC50 was 6.06. Against the preceding compound, the pIC50 is 0.79 log units lower.

The compound `COc1ccc(C(=O)N[C@@H](CC(C)C)C(=O)NC2CC[C@@H](C)N(C(=O)Nc3ccc(Cl)cc3)CC2=O)cc1OCCN1CCOCC1` (stereo partly specified) showed a pIC50 of 6.82. Against the preceding compound, the pIC50 is 0.76 log units higher.

In turn, `O=S(=O)(c1cccc(F)c1)c1ccc(Nc2ncnc3cc(Br)sc23)cc1Cl` showed a pIC50 of 5.99.

The compound `Cc1ccc(-c2cc(C(=O)Nc3ccc(S(=O)(=O)N4CCCCC4)cc3)[nH]n2)c(O)c1` had a pIC50 of 5.75.

On to `CCCOc1ccc(-c2nonc2NC(=O)c2ccccc2OC)cc1OCCC`, for which the pIC50 was 6.07. This pIC50 lies 0.32 log units higher than the previous one.

`Cc1c(C(=O)NCc2ccncc2)sc2nc(-c3cccc([N+](=O)[O-])c3)cn12` had a negative-log IC50 (pIC50) of 6.04. The pIC50 values of the last two compounds are within 0.2 log units of each other.

Take `COc1ccc(C2C(C(=O)OC3CCCCC3)=C(C)NC3=C2C(=O)CCC3)cc1Br` (stereo unspecified): the pIC50 was 6.24.

On to `O=C(Nc1ccc(F)cc1F)NC1CCN(CCCCCNC(=O)[C@@H]2C[C@H]2c2ccc(Cl)c(Cl)c2)CC1`, for which the pIC50 was 6.30.

As to `O[C@@H](c1ccccc1)[C@@H]1CN(CCC2C[C@@H]3CC[C@H]2C3)CC[C@@]1(O)c1ccccc1` (stereo partly specified), the pIC50 is 6.46.

`N#Cc1cccc(COC(=O)C2=C(COc3ccccc3Cl)NC(=O)NC2c2c[nH]c3cnccc23)c1` (stereo unspecified) showed a pIC50 of 6.10.

On to `O=C1C(c2ccccc2)=C(Nc2cccc([N+](=O)[O-])c2)c2ccccc21`, for which the pIC50 is 6.05.
